Data taken from US20220289691A1, “5-AMINO-SUBSTITUTED PYRAZOLES AND TRIAZOLES AS PEST CONTROL AGENTS” (Bayer Aktiengesellschaft, priority 2019, published 2022).
Like-named read-outs stand apart in the source and are kept apart here.

Legend:
Format in all cases: in vivo
Spodoptera frugiperda = Spodoptera frugiperda spray test; settings: foliar, 168 h, maize leaf discs, after 7 days, read-out: efficacy (caterpillars killed)
Method: Spodoptera frugiperda—Spray Test Solvent: 78.0 parts by weight of acetone • • 1.5 parts by weight of dimethylformamide Emulsifier: alkylaryl polyglycol ether
(§1) To produce a suitable active compound formulation, 1 part by weight of active compound is dissolved using the stated parts by weight of solvent and made up with water containing an emulsifier concentration of 1000 ppm until the desired concentration is attained. To produce further test concentrations, the formulation is diluted with emulsifier-containing water.
Leaf discs of maize (Zea mays) are sprayed with an active compound formulation of the desired concentration and, after drying, populated with caterpillars of the fall armyworm (Spodoptera frugiperda).
After 7 days, the efficacy in % is determined. 100% means that all the caterpillars have been killed; 0% means that no caterpillar has been killed.

Phaedon cochleariae = Phaedon cochleariae spray test; settings: foliar, 168 h, Chinese cabbage leaf discs, after 7 days, read-out: efficacy (beetle larvae killed)
Method: Phaedon cochleariae—Spray Test Solvent: 78.0 parts by weight of acetone • • 1.5 parts by weight of dimethylformamide Emulsifier: alkylaryl polyglycol ether
as §1
Discs of Chinese cabbage leaves (Brassica pekinensis) are sprayed with an active compound formulation of the desired concentration and, after drying, populated with larvae of the mustard beetle (Phaedon cochleariae).
After 7 days, the efficacy in % is determined. 100% means that all the beetle larvae have been killed; 0% means that no beetle larvae have been killed.

Ctenocephalides felis = Ctenocephalides felis oral test; settings: 48 h, 100 ppm in citrated cattle blood, adult cat fleas, after 2 days, read-out: efficacy (kill)
Method: Ctenocephalides felis—Oral Test
Solvent: Dimethyl Sulfoxide
To produce a suitable active compound formulation, 10 mg of active compound are mixed with 0.5 ml of dimethyl sulfoxide. Dilution with citrated cattle blood gives the desired concentration.
About 20 unfed adult cat fleas (Ctenocephalides felis) are placed into a chamber which is closed at the top and bottom with gauze. A metal cylinder whose bottom end is closed with parafilm is placed onto the chamber. The cylinder contains the blood/active compound formulation, which can be imbibed by the fleas through the parafilm membrane.
After 2 days, the kill in % is determined. 100% means that all of the fleas have been killed; 0% means that none of the fleas have been killed.

Diabrotica balteata = Diabrotica balteata spray test; settings: 168 h, read-out: efficacy (wheat plant growth)
Method: Diabrotica balteata—Spray Test Solvent: 78 parts by weight of acetone • • 1.5 parts by weight of dimethylformamide Emulsifier: alkylaryl polyglycol ether
as §1
Pre-swollen wheat grains (Triticum aestivum) are incubated in a multiwell plate filled with agar and a little water for one day (5 seed grains per cavity). The germinated wheat grains are sprayed with an active compound formulation of the desired concentration. Subsequently, each cavity is infected with 10-20 beetle larvae of Diabrotica balteata.
After 7 days, the efficacy in % is determined. 100% means that all wheat plants have grown as in the untreated, uninfected control; 0% means that no wheat plant has grown.

[1] = 100 g/ha (=32 μg/cavity), beetle larvae on wheat, after 7 days

SMILES	pest or weed control at 100 g/ha (Spodoptera frugiperda) [%]	pest or weed control at 100 g/ha (Diabrotica balteata; [1]) [%]	also measured
CO[C@@H]1[C@@H](OC)[C@H](C)O[C@@H](OC(=O)Nc2ccc(-c3nc(NC(=O)C4CC4)n(-c4ccc(OC(F)(F)C(F)(F)F)cc4)n3)cc2)[C@@H]1OC [Compound I-004]			pest or weed control at 500 g/ha (Spodoptera frugiperda; 500 g/ha): 83%; pest or weed control at 100 g/ha (Phaedon cochleariae): 100%; pest or weed control at 500 g/ha (Phaedon cochleariae; 500 g/ha): 100%
CC(=O)Nc1nc(-c2ccc(C=NNC(=S)Nc3ccccc3C)cc2)nn1-c1ccc(OC(F)(F)F)cc1 [Compound I-010]	100		pest or weed control at 100 ppm (Ctenocephalides felis): 100%; pest or weed control at 100 g/ha (Phaedon cochleariae): 100%
CCC(=O)Nc1nc(-c2ccc(C=NNC(=S)Nc3ccccc3C(C)C)cc2)nn1-c1ccc(OC(F)(F)F)cc1 [Compound I-012]	100		pest or weed control at 100 g/ha (Phaedon cochleariae): 100%
CC(C)c1ccccc1NC(=S)NN=Cc1ccc(-c2nc(NC(=O)C3CC3)n(-c3ccc(OC(F)(F)F)cc3)n2)cc1 [Compound I-013]	100		pest or weed control at 100 ppm (Ctenocephalides felis): 100%; pest or weed control at 100 g/ha (Phaedon cochleariae): 100%
CC(=O)Nc1nc(-c2ccc(C(C)=NNC(=S)Nc3ccccc3C)cc2)nn1-c1ccc(OC(F)(F)F)cc1 [Compound I-014]	100		pest or weed control at 100 ppm (Ctenocephalides felis): 80%; pest or weed control at 100 g/ha (Phaedon cochleariae): 100%
CC(=O)Nc1nc(-c2ccc(C(C)=NNC(=S)Nc3c(C)cccc3C)cc2)nn1-c1ccc(OC(F)(F)F)cc1 [Compound I-015]	100		pest or weed control at 100 ppm (Ctenocephalides felis): 100%; pest or weed control at 100 g/ha (Phaedon cochleariae): 83%
CCC(=O)Nc1nc(-c2ccc(C(C)=NNC(=S)Nc3ccccc3C(C)C)cc2)nn1-c1ccc(OC(F)(F)F)cc1 [Compound I-016]	100		pest or weed control at 100 ppm (Ctenocephalides felis): 95%; pest or weed control at 100 g/ha (Phaedon cochleariae): 100%
CC(C)c1ccccc1N1C(=O)CSC1=NN=Cc1ccc(-c2nc(NC3CCOCC3)n(-c3ccc(OC(F)(F)F)cc3)n2)cc1 [Compound I-087]	100	100	
COC(CCNc1nc(-c2ccc(C=NN=C3SCC(=O)N3c3ccccc3C(C)C)cc2)nn1-c1ccc(OC(F)(F)F)cc1)OC [Compound I-088]	100	100	
CNc1nc(-c2ccc(C=NN=C3SCCN3c3ccccc3C(C)C)cc2)nn1-c1ccc(OC(F)(F)F)cc1 [Compound I-091]	83	100	
CC(C)c1ccccc1NC(=S)NN=Cc1ccc(-c2nc(NCCS(C)(=O)=O)n(-c3ccc(OC(F)(F)F)cc3)n2)cc1 [Compound I-093]	100	100	
CC(C)c1ccccc1NC(=S)NN=Cc1ccc(-c2nc(NCCC#N)n(-c3ccc(OC(F)(F)F)cc3)n2)cc1 [Compound I-094]	100	100	
CC(C)c1ccccc1N1C(=O)CSC1=NN=Cc1ccc(-c2nc(NCCS(C)(=O)=O)n(-c3ccc(OC(F)(F)F)cc3)n2)cc1 [Compound I-095]	100	100	
CC(=O)Nc1nc(-c2ccc(C=NNC(=S)Nc3ccccc3C(C)C)cc2)nn1-c1ccc(OC(F)(F)C(F)(F)F)cc1 [Compound I-096]	100	100	
CNc1nc(-c2ccc(C=NN=C3SC(C)C(=O)N3c3ccccc3C(C)C)cc2)nn1-c1ccc(OC(F)(F)F)cc1 (centres unmarked) [Compound I-098]	100	100	
CC(=O)Nc1nc(-c2ccc(C=NN=C3SCC(=O)N3c3ccccc3C(C)C)cc2)nn1-c1ccc(OC(F)(F)C(F)(F)F)cc1 [Compound I-099]	100	80	
CC(C)c1ccccc1NC(=S)NN=Cc1ccc(-c2nc(NC3CSC3)n(-c3ccc(OC(F)(F)C(F)(F)F)cc3)n2)cc1 [Compound I-100]	100	100	

SMILES	pest or weed control at 100 g/ha (Spodoptera frugiperda) [%]	pest or weed control at 100 g/ha (Diabrotica balteata; [1]) [%]	also measured
CNc1nc(-c2ccc(C=NN3CCCSC3=Nc3ccccc3C(C)C)cc2)nn1-c1ccc(OC(F)(F)F)cc1 [Compound I-102]	100	100	
CNc1nc(-c2ccc(C=NN=C3SCC(=O)CN3c3ccccc3C(C)C)cc2)nn1-c1ccc(OC(F)(F)F)cc1 [Compound I-103]	100	100	
CNc1cc(-c2ccc(C=NN=C3SCC(=O)N3c3ccccc3C(C)C)cc2)nn1-c1ccc(OC(F)(F)F)cc1 [Compound I-106]	100	100	
CNc1nc(-c2ccc(C=NN=C3SCC(=O)N3c3ccccc3C(C)C)cc2F)nn1-c1ccc(OC(F)(F)F)cc1 [Compound I-110]	100	100	
CNc1nc(-c2ccc(C=NN=C3SCC(=O)N3c3ccccc3C(C)C)cc2Cl)nn1-c1ccc(OC(F)(F)F)cc1 [Compound I-112]	100	100	
CNc1nc(-c2ccc(C=NN=C3SCCC(=O)N3c3ccccc3C(C)C)cc2)nn1-c1ccc(OC(F)(F)F)cc1 [Compound I-113]	100	100	
CNc1nc(-c2ccc(/C=N/NC(=S)Nc3ccccc3C(C)C)c(Cl)c2)nn1-c1ccc(OC(F)(F)F)cc1 [Compound I-114]	100	100	
CCOC(=O)Nc1nc(-c2ccc(NC(=O)N=C3SCC(=O)N3c3ccccc3C(C)C)cc2)nn1-c1ccc(OC(F)(F)F)cc1 [Compound I-116]	100		pest or weed control at 100 g/ha (Diabrotica balteata; in Triticum aestivum): 100%
CNc1nc(-c2ccc(C=NN=C3SCC(=O)N3c3ccccc3C(C)C)nc2)nn1-c1ccc(OC(F)(F)F)cc1 [Compound I-118]	100	100	
CNc1nc(-c2ccc(C=NNC(=S)Nc3ccccc3C(C)C)cc2C)nn1-c1ccc(OC(F)(F)F)cc1 [Compound I-119]	100	100	
CNc1nc(-c2c(F)cc(C=NNC(=S)Nc3ccccc3C(C)C)cc2F)nn1-c1ccc(OC(F)(F)F)cc1 [Compound I-120]	100	100	
CNc1nc(-c2c(F)cc(C=NN=C3SCC(=O)N3c3ccccc3C(C)C)cc2F)nn1-c1ccc(OC(F)(F)F)cc1 [Compound I-122]	100	100	
CNc1nc(-c2ccc(C=NNC(=S)Nc3ccccc3C(C)C)cc2C#N)nn1-c1ccc(OC(F)(F)F)cc1 [Compound I-123]	100	100	
CNc1nc(-c2ccc(C=NN=C3SCC(=O)N3c3ccccc3C(C)C)cc2C#N)nn1-c1ccc(OC(F)(F)F)cc1 [Compound I-124]	100	100	
CNc1nc(-c2ccc(C=NN3CCCSC3=Nc3ccccc3C(C)C)cc2)nn1-c1ccc(OC(F)(F)C(F)(F)F)cc1 [Compound I-125, 3-{4-[({2-[(2-isopropylphenyl)imino]-1,3-thiazinan-3-yl}imino)methyl]phenyl}-N-methyl-1-[4-(pentafluoroethoxy)phenyl]-1H-1,2,4-triazol-5-amine]	100	100	
CNc1nc(-c2ccc(C=NN=C3SCCCN3c3ccccc3C(C)C)cc2)nn1-c1ccc(OC(F)(F)C(F)(F)F)cc1 [Compound I-126, 3-[4-({[3-(2-isopropylphenyl)-1,3-thiazinan-2-yliden]hydrazono}methyl)phenyl]-N-methyl-1-[4-(pentafluoroethoxy)phenyl]-1H-1,2,4-triazol-5-amine]	100	100	
CNc1nc(-c2ccc(C=NN=c3scc(C)n3-c3ccccc3C(C)C)cc2)nn1-c1ccc(OC(F)(F)C(F)(F)F)cc1 [Compound I-127]	100	100	
